Values of other authors as cited in US9393243B1 (priority 2015, dated 2016).
Structures can show the parent of a compound that is named as a salt. Where two headings read alike, the source gives them in different places.

Key:
[1] = aqueous solutions, about 0.2 to about 1 weight percent
[2] = system: a variety of bacterial pathogens; details: typical value; T. L. Ke et al. 2001

For O=C(O)c1cn(C2CC2)c2cc(N3CCNCC3)c(F)cc2c1=O [ciprofloxacin HCl], the “pH at which precipitation was observed” value ([1]; 5° C.) is given as “above 5” and the “pH at which precipitation was observed” value ([1]; room temperature) is given as “above 5.5”.
For O=C(O)c1cn(C2CC2)c2cc(N3CCNCC3)c(F)cc2c1=O [ciprofloxacin, 1-cyclopropyl-6-fluoro-1,4-dihydro-4-oxo-7-(1-piperazinyl)-3-quinolinecarboxylic acid], the MIC90 [2] is listed as “around 0.5 μg/g”.
For gentamycin, the MIC90 [2] is listed as “around 10 μg/gm”.
